The source of these data is US7943619B2, “Isoxazolo-pyridazine derivatives” (priority 2007, dated 2011).

Each structure is given as a SMILES string.

For the assay, the target named is human GABA A receptor α5β3γ2 (α5 subunit) (Homo sapiens, UniProt P18507+P31644). The assay can be described thus: biochemical. It counts as binding. Particulars: competition for [3H]flumazenil binding, HEK293 cells transiently expressing human receptors; means of two determinations; read-out: hKi. The method, then: The affinity of compounds at GABA A receptor subtypes was measured by competition for [3H]flumazenil (85 Ci/mmol; Roche) binding to HEK293 cells expressing rat (stably transfected) or human (transiently transfected) receptors of composition α1β3γ2, α2β3γ2, α3β3γ2 and α5β3γ2.
Chain of human GABA A receptor α5β3γ2 (α5 subunit) (P31644 32-462): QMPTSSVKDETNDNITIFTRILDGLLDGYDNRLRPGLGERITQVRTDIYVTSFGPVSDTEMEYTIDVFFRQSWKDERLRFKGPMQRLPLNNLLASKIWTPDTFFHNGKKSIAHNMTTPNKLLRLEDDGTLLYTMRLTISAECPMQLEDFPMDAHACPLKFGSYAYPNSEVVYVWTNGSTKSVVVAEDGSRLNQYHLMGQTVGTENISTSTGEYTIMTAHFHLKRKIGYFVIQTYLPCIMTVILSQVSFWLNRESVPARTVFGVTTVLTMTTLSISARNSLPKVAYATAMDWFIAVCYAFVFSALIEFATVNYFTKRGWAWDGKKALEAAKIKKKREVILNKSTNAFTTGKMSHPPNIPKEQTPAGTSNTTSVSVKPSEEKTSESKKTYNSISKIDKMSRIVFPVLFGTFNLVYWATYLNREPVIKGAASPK
Chain of human GABA A receptor α5β3γ2 (α5 subunit) (P28472 26-473 partner): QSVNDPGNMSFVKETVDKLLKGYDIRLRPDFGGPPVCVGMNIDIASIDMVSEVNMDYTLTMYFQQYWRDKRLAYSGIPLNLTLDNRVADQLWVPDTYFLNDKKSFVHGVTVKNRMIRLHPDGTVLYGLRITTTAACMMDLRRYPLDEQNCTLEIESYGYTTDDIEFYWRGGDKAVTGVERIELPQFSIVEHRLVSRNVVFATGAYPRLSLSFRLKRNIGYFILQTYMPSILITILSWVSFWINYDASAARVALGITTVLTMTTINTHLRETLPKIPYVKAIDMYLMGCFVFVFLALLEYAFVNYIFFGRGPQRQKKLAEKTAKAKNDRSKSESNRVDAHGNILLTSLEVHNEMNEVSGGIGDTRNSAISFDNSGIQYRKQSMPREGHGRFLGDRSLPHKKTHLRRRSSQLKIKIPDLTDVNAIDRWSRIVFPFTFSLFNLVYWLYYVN
Chain of human GABA A receptor α5β3γ2 (α5 subunit) (P18507 40-475): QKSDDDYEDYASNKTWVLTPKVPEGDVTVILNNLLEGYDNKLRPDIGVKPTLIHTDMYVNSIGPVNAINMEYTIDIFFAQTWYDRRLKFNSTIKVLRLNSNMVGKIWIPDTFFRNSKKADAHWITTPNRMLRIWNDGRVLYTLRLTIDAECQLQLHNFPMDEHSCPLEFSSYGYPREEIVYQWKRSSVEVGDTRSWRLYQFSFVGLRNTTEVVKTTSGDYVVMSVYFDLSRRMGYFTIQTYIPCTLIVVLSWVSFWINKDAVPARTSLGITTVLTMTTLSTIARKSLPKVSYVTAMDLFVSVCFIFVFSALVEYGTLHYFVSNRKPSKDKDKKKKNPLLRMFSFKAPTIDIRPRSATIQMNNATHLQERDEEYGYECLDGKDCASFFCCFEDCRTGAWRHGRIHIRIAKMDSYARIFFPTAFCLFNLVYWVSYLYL
Cell pellets were suspended in Krebs-tris buffer (4.8 mM KCl, 1.2 mM CaCl2, 1.2 mM MgCl2, 120 mM NaCl, 15 mM Tris; pH 7.5; binding assay buffer), homogenized by polytron for ca. 20 sec on ice and centrifuged for 60 min at 4° C. (50000 g; Sorvall, rotor: SM24=20000 rpm). The cell pellets were resuspended in Krebs-tris buffer and homogenized by polytron for ca. 15 sec on ice. Protein was measured (Bradford method, Bio-Rad) and aliquots of 1 mL were prepared and stored at −80° C.
Assays were incubated to equilibrium for 1 hour at 4° C. and harvested onto GF/C uni-filters (Packard) by filtration using a Packard harvester and washing with ice-cold wash buffer (50 mM Tris; pH 7.5). After drying, filter-retained radioactivity was detected by liquid scintillation counting. Ki values were calculated using Excel-Fit (Microsoft) and are the means of two determinations.

Turning to `Cc1onc(-c2ccccc2)c1COc1ccc(NC(=O)c2ccco2)nn1` [Example 32, Furan-2-carboxylic acid [6-(5-methyl-3-phenyl-isoxazol-4-ylmethoxy)-pyridazin-3-yl]-amide], the Ki stood at 6.9 nM.

As to `Cc1onc(-c2ccccn2)c1COc1ccc(C(=O)NC(C)(C)CO)nn1` [Example 105, 6-(5-Methyl-3-pyridin-2-yl-isoxazol-4-ylmethoxy)-pyridazine-3-carboxylic acid (2-hydroxy-1,1-dimethyl-ethyl)-amide], the Ki came out at 4 nM.

As for `O=C(NC1CC1)c1ccc(OCc2conc2-c2ccccn2)nn1` [Example 124, 6-(3-Pyridin-2-yl-isoxazol-4-ylmethoxy)-pyridazine-3-carboxylic acid cyclopropylamide], the Ki was 31.5 nM.

With `COCCNC(=O)c1ccc(OCc2c(-c3ccccn3)noc2C)nn1` [Example 106, 6-(5-Methyl-3-pyridin-2-yl-isoxazol-4-ylmethoxy)-pyridazine-3-carboxylic acid (2-methoxy-ethyl)-amide], the Ki was 1.6 nM.

With `Cc1onc(-c2ccncn2)c1COc1ccc(C(=O)NCCO)nn1` [Example 114, 6-(5-Methyl-3-pyrimidin-4-yl-isoxazol-4-ylmethoxy)-pyridazine-3-carboxylic acid (2-hydroxy-ethyl)-amide], the Ki is 4.7 nM.

Turning to `Cc1onc(-c2ccccc2)c1COc1ccc(C(=O)NC(C)(C)CO)nn1` [Example 13, 6-(5-Methyl-3-phenyl-isoxazol-4-ylmethoxy)-pyridazine-3-carboxylic acid (2-hydroxy-1,1-dimethyl-ethyl)-amide], the Ki stood at 7.7 nM.

`Cc1cc(OCc2c(-c3ccccc3)noc2C)nnc1C(=O)NC1CC1` [Example 45, 4-Methyl-6-(5-methyl-3-phenyl-isoxazol-4-ylmethoxy)-pyridazine-3-carboxylic acid cyclopropylamide]: the Ki amounted to 1.4 nM.

`CCOC(=O)Nc1ccc(OCc2c(-c3ccccc3)noc2C)nn1` [Example 34, [6-(5-Methyl-3-phenyl-isoxazol-4-ylmethoxy)-pyridazin-3-yl]-carbamic acid ethyl ester]: the Ki is 8.6 nM.

As for `Cc1onc(-c2cccc(F)c2)c1COc1ccc(C(=O)NCCO)nn1` [Example 52, 6-[3-(3-Fluoro-phenyl)-5-methyl-isoxazol-4-ylmethoxy]-pyridazine-3-carboxylic acid (2-hydroxy-ethyl)-amide], the Ki stood at 6.6 nM.

As for `Cc1onc(-c2ccccn2)c1COc1ccc(C(=O)NCC2CC2)nn1` [Example 100, 6-(5-Methyl-3-pyridin-2-yl-isoxazol-4-ylmethoxy)-pyridazine-3-carboxylic acid cyclopropylmethyl-amide], the Ki was 4.1 nM.

`Cc1onc(-c2ccccc2)c1COc1ccc(N)nn1` [Example 15, 6-(5-Methyl-3-phenyl-isoxazol-4-ylmethoxy)-pyridazin-3-ylamine]: the Ki stood at 4.1 nM.

As for `Cc1onc(-c2ccccc2)c1COc1ccc(N(C)C)nn1` [Example 38, Dimethyl-[6-(5-methyl-3-phenyl-isoxazol-4-ylmethoxy)-pyridazin-3-yl]-amine], the Ki is 8.4 nM.

Turning to `Cc1onc(-c2ccc(F)cc2)c1COc1ccc(C(=O)N2CCS(=O)(=O)CC2)nn1` [Example 66, (1,1-Dioxo-1λ6-thiomorpholin-4-yl)-{6-[3-(4-fluoro-phenyl)-5-methyl-isoxazol-4-ylmethoxy]-pyridazin-3-yl}-methanone], the Ki came out at 11.7 nM.

In the case of `CNC(=O)c1ccc(OCc2c(-c3ccccn3)noc2C)nn1` [Example 102, 6-(5-Methyl-3-pyridin-2-yl-isoxazol-4-ylmethoxy)-pyridazine-3-carboxylic acid methylamide], the Ki stood at 0.9 nM.

On to `O=C(NC1CCOCC1)c1ccc(OCc2conc2-c2ccc(F)cc2)nn1` [Example 122, 6-[3-(4-Fluoro-phenyl)-isoxazol-4-ylmethoxy]-pyridazine-3-carboxylic acid (tetrahydro-pyran-4-yl)-amide], for which the Ki worked out at 34.7 nM.

Regarding `Cc1onc(-c2ccccn2)c1COc1ccc(C(=O)NC(C)C)nn1` [Example 95, 6-(5-Methyl-3-pyridin-2-yl-isoxazol-4-ylmethoxy)-pyridazine-3-carboxylic acid isopropylamide], the Ki amounted to 2.7 nM.

Consider `Cc1cc(OCc2c(-c3ccccc3)noc2C)nnc1C(=O)NC(C)C` [Example 46, 4-Methyl-6-(5-methyl-3-phenyl-isoxazol-4-ylmethoxy)-pyridazine-3-carboxylic acid isopropylamide], for which the Ki stood at 3.6 nM.

For the molecule `CC(C)NC(=O)c1ccc(OCc2conc2-c2ccc(F)cc2)nn1` [Example 121, 6-[3-(4-Fluoro-phenyl)-isoxazol-4-ylmethoxy]-pyridazine-3-carboxylic acid isopropylamide], the Ki came to 27.6 nM.

In the case of `Cc1onc(-c2cccc(F)c2)c1COc1ccc(C(=O)NC(C)C)nn1` [Example 54, 6-[3-(3-Fluoro-phenyl)-5-methyl-isoxazol-4-ylmethoxy]-pyridazine-3-carboxylic acid isopropylamide], the Ki was 8.4 nM.

As for `Cc1onc(-c2ccccc2)c1COc1ccc(N2CCOCC2)nn1` [Example 36, 4-[6-(5-Methyl-3-phenyl-isoxazol-4-ylmethoxy)-pyridazin-3-yl]-morpholine], the Ki worked out at 9.4 nM.

For `Cc1onc(-c2ccc(Cl)cn2)c1CNc1ccc(C(=O)NC(C)(C)CO)nn1` [Example 119, 6-{[3-(5-Chloro-pyridin-2-yl)-5-methyl-isoxazol-4-ylmethyl]-amino}-pyridazine-3-carboxylic acid (2-hydroxy-1,1-dimethyl-ethyl)-amide], the Ki worked out at 7.3 nM.

As for `Cc1onc(-c2ccccc2)c1COc1ccc(C(=O)NCCO)nn1` [Example 12, 6-(5-Methyl-3-phenyl-isoxazol-4-ylmethoxy)-pyridazine-3-carboxylic acid (2-hydroxy-ethyl)-amide], the Ki stood at 3.4 nM.

`Cc1onc(-c2ccccc2)c1COc1ccc(C(=O)NC2CCOCC2)nn1` [Example 9, 6-(5-Methyl-3-phenyl-isoxazol-4-ylmethoxy)-pyridazine-3-carboxylic acid (tetrahydro-pyran-4-yl)-amide]: the Ki turned out to be 4.8 nM.

In the case of `COCCNC(=O)c1ccc(OCc2c(-c3ccccc3)noc2C)nn1` [Example 6, 6-(5-Methyl-3-phenyl-isoxazol-4-ylmethoxy)-pyridazine-3-carboxylic acid (2-methoxy-ethyl)-amide], the Ki came to 5.4 nM.

Consider `COc1ccc(OCc2c(-c3ccccc3)noc2C)nn1` [Example 14, 3-Methoxy-6-(5-methyl-3-phenyl-isoxazol-4-ylmethoxy)-pyridazine], for which the Ki amounted to 12.3 nM.

As for `CNC(=O)c1ccc(OCc2c(-c3ccncc3)noc2C)nn1` [Example 108, 6-(5-Methyl-3-pyridin-4-yl-isoxazol-4-ylmethoxy)-pyridazine-3-carboxylic acid methylamide], the Ki is 9 nM.

As to `Cc1cc(C)n(-c2ccc(OCc3c(-c4ccccc4)noc3C)nn2)n1` [Example 39, 3-(3,5-Dimethyl-pyrazol-1-yl)-6-(5-methyl-3-phenyl-isoxazol-4-ylmethoxy)-pyridazine], the Ki was determined as 5.1 nM.

Take `Cc1onc(-c2ccccc2)c1COc1ccc(NC(=O)c2ccno2)nn1` [Example 33, Isoxazole-5-carboxylic acid [6-(5-methyl-3-phenyl-isoxazol-4-ylmethoxy)-pyridazin-3-yl]-amide]: the Ki amounted to 5.4 nM.
